“And” between values parts separate entries of the source, which are not always exact repeats. Equal entries are not always repeated. Toxic doses and inconclusive results are not listed. Rule as the data show it: active = T/C of 150% or more; inactive = T/C below 125%.
Tested on: L1210 leukemia ip in BDF1 mice, survival T/C
Experiment: NCI In Vivo Anticancer Drug Screen. Data for tumor model L1210 Leukemia (intraperitoneal) in B6D2F1 (BDF1) mice
Settings: endpoint: mean survival time, higher = longer survival
Summary of the method: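 Antitumor effect is assessed in tumor-bearing animals. Survival in the compound arm is compared with a vehicle-dosed control arm and expressed as their quotient.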

[1] = dose: 100.0 mg/kg/injection, schedule: Q04DX003 (ip), vehicle: saline with Tween-80
[2] = dose: 100.0 mg/kg/injection, schedule: Q01DX009 (ip), vehicle: saline with Tween-80
[3] = dose: 200.0 mg/kg/injection, schedule: Q01DX009 (ip), vehicle: saline with Tween-80
[4] = dose: 400.0 mg/kg/injection, schedule: Q01DX009 (ip), vehicle: saline with Tween-80
[5] = dose: 100.0 mg/kg/injection, schedule: Q01DX009 (ip), vehicle: Klucel (hydroxypropylcellulose) (HPC)
[6] = dose: 100.0 mg/kg/injection, schedule: Q04DX003 (ip), vehicle: Klucel (hydroxypropylcellulose) (HPC)
[7] = dose: 200.0 mg/kg/injection, schedule: Q01DX009 (ip), vehicle: Klucel (hydroxypropylcellulose) (HPC)
[8] = dose: 200.0 mg/kg/injection, schedule: Q04DX003 (ip), vehicle: Klucel (hydroxypropylcellulose) (HPC)
[9] = dose: 400.0 mg/kg/injection, schedule: Q04DX003 (ip), vehicle: Klucel (hydroxypropylcellulose) (HPC)
[10] = dose: 100.0 mg/kg/injection, schedule: Q04DX002 (ip), vehicle: Klucel (hydroxypropylcellulose) (HPC)
[11] = dose: 200.0 mg/kg/injection, schedule: Q04DX002 (ip), vehicle: Klucel (hydroxypropylcellulose) (HPC)
[12] = dose: 400.0 mg/kg/injection, schedule: Q04DX002 (ip), vehicle: Klucel (hydroxypropylcellulose) (HPC)
[13] = dose: 12.5 mg/kg/injection, schedule: Q04DX003 (ip), vehicle: Klucel (hydroxypropylcellulose) (HPC)
[14] = dose: 25.0 mg/kg/injection, schedule: Q04DX003 (ip), vehicle: Klucel (hydroxypropylcellulose) (HPC)
[15] = dose: 200.0 mg/kg/injection, schedule: Q04DX003 (ip), vehicle: saline with Tween-80
[16] = dose: 400.0 mg/kg/injection, schedule: Q04DX003 (ip), vehicle: saline with Tween-80

Measured: T/C

CCN(CC)CCNc1nc(N)nc2c1nnn2CC
inactive: dose: 100.0 mg/kg/injection, schedule: Q04DX003 (ip), vehicle: gum acacia 93 % of control | dose: 200.0 mg/kg/injection, schedule: Q04DX003 (ip), vehicle: gum acacia 91 % of control

O=C(CNC(=O)c1ccc(Cl)cc1)NO
inactive: dose: 100.0 mg/kg/injection, schedule: Q01DX001 (ip), vehicle: Klucel (hydroxypropylcellulose) (HPC) 96 % of control | dose: 200.0 mg/kg/injection, schedule: Q01DX001 (ip), vehicle: Klucel (hydroxypropylcellulose) (HPC) 102 % of control | dose: 400.0 mg/kg/injection, schedule: Q01DX001 (ip), vehicle: Klucel (hydroxypropylcellulose) (HPC) 96 % of control

O=C(Nc1ccc(I)cc1)c1cc([N+](=O)[O-])ccc1O
inactive: dose: 17.0 mg/kg/injection, schedule: Q02DX010 (ip), vehicle: carboxymethylcellulose (CMC) 99 % of control | dose: 34.0 mg/kg/injection, schedule: Q02DX010 (ip), vehicle: carboxymethylcellulose (CMC) 103 % of control | dose: 68.0 mg/kg/injection, schedule: Q02DX010 (ip), vehicle: carboxymethylcellulose (CMC) 97 % of control | dose: 136.0 mg/kg/injection, schedule: Q02DX010 (ip), vehicle: carboxymethylcellulose (CMC) 95 % of control | dose: 272.0 mg/kg/injection, schedule: Q02DX010 (ip), vehicle: carboxymethylcellulose (CMC) 98 % of control

CCOc1c(Cl)cc(Cl)cc1C(c1ccc(Cl)cc1S(=O)(=O)O)c1cc(Cl)cc(Cl)c1OCC
inactive: [1] 89 % of control

CC(=O)c1ccc(NC(=S)Nc2ccc(C(C)=O)cc2)cc1
inactive: dose: 5.0 mg/kg/injection, schedule: Q01DX009 (ip), vehicle: saline with Tween-80 87 % of control | dose: 10.0 mg/kg/injection, schedule: Q01DX009 (ip), vehicle: saline with Tween-80 103 % of control | dose: 20.0 mg/kg/injection, schedule: Q01DX009 (ip), vehicle: saline with Tween-80 98 % of control and 115 % of control | dose: 40.0 mg/kg/injection, schedule: Q01DX009 (ip), vehicle: saline with Tween-80 97 % of control and 102 % of control | dose: 80.0 mg/kg/injection, schedule: Q01DX009 (ip), vehicle: saline with Tween-80 86 % of control | dose: 84.0 mg/kg/injection, schedule: Q01DX009 (ip), vehicle: saline with Tween-80 98 % of control | dose: 320.0 mg/kg/injection, schedule: Q01DX009 (ip), vehicle: saline with Tween-80 102 % of control

COc1ccc2[nH]c3cc(Cl)ccc3c(=O)c2c1
inactive: [2] 91 % of control | [3] 88 % of control | [4] 86 % of control

CC1(OC(=O)c2ccc([N+](=O)[O-])cc2)CC2CCC1C2 (stereo not given)
inactive: dose: 100.0 mg/kg/injection, schedule: Q01DX001 (ip), vehicle: saline with Tween-80 98 % of control | dose: 200.0 mg/kg/injection, schedule: Q01DX001 (ip), vehicle: saline with Tween-80 91 % of control | dose: 400.0 mg/kg/injection, schedule: Q01DX001 (ip), vehicle: saline with Tween-80 104 % of control

CCCCNC(=O)Nc1ccc(CC)cc1
inactive: [5] 98 % of control | [6] 97 % of control | [7] 102 % of control | [8] 102 % of control | dose: 400.0 mg/kg/injection, schedule: Q01DX009 (ip), vehicle: Klucel (hydroxypropylcellulose) (HPC) 96 % of control | [9] 100 % of control

CCOC(OCC)C(O)CNc1ccc([N+](=O)[O-])cc1[N+](=O)[O-] (stereo not given)
inactive: [6] 98 % of control | [8] 101 % of control | [9] 103 % of control

O=C(COc1cc(Cl)c(Cl)cc1Cl)Nc1ccccc1Br
inactive: [10] 95 % of control | [11] 98 % of control | [12] 106 % of control

CC(C)(C)C1CCC(OS(C)(=O)=O)C(OS(C)(=O)=O)C1 (stereo not given)
inactive: [13] 102 % of control | [14] 100 % of control

O=[N+]([O-])c1ccc(N/N=C2\CCC3CC23)c([N+](=O)[O-])c1 (stereo not given)
inactive: dose: 25.0 mg/kg/injection, schedule: Q04DX002 (ip), vehicle: Klucel (hydroxypropylcellulose) (HPC) 105 % of control | dose: 50.0 mg/kg/injection, schedule: Q04DX002 (ip), vehicle: Klucel (hydroxypropylcellulose) (HPC) 102 % of control | [10] 97 % of control

c1ccc(CC[P+](c2ccccc2)(c2ccccc2)c2ccccc2)cc1
inactive: dose: 0.78 mg/kg/injection, schedule: Q01DX009 (ip), vehicle: Klucel (hydroxypropylcellulose) (HPC) 97 % of control | dose: 1.56 mg/kg/injection, schedule: Q01DX009 (ip), vehicle: Klucel (hydroxypropylcellulose) (HPC) 96 % of control | dose: 3.13 mg/kg/injection, schedule: Q01DX009 (ip), vehicle: Klucel (hydroxypropylcellulose) (HPC) 92 % of control | [13] 101 % of control | [14] 103 % of control

CCOC1=CCCCC1
inactive: dose: 50.0 mg/kg/injection, schedule: Q01DX001 (ip), vehicle: saline 101 % of control | dose: 100.0 mg/kg/injection, schedule: Q01DX001 (ip), vehicle: saline 103 % of control | dose: 200.0 mg/kg/injection, schedule: Q01DX001 (ip), vehicle: saline 103 % of control | dose: 400.0 mg/kg/injection, schedule: Q01DX001 (ip), vehicle: saline 101 % of control

CC(=O)NC1CCCCC1
inactive: [1] 95 % of control | [15] 98 % of control | [16] 92 % of control

O=C1Nc2ccccc2/C1=C/Cl
inactive: dose: 6.25 mg/kg/injection, schedule: Q04DX002 (ip), vehicle: saline with Tween-80 96 % of control | dose: 12.5 mg/kg/injection, schedule: Q04DX002 (ip), vehicle: saline with Tween-80 100 % of control | dose: 25.0 mg/kg/injection, schedule: Q04DX002 (ip), vehicle: saline with Tween-80 103 % of control

O=C(O)CSC(=S)SCC(=O)O
inactive: [5] 100 % of control | [6] 100 % of control | [7] 97 % of control | [8] 105 % of control | [9] 101 % of control

Fc1ccc(Cl)c2cccnc12
inactive: dose: 75.0 mg/kg/injection, schedule: Q01DX001 (ip), vehicle: saline 105 % of control | dose: 150.0 mg/kg/injection, schedule: Q01DX001 (ip), vehicle: saline 102 % of control

CC1(Cc2ccccc2)CCC(=O)O1 (stereo not given)
inactive: [2] 98 % of control | [1] 98 % of control | [3] 100 % of control | [15] 96 % of control | [4] 87 % of control | [16] 104 % of control

O=C1C/C(=C\c2ccccc2O)C(=O)c2ccccc21
inactive: dose: 10.0 mg/kg/injection, schedule: Q04DX002 (ip), vehicle: Klucel (hydroxypropylcellulose) (HPC) 101 % of control | dose: 20.0 mg/kg/injection, schedule: Q04DX002 (ip), vehicle: Klucel (hydroxypropylcellulose) (HPC) 93 % of control | dose: 40.0 mg/kg/injection, schedule: Q04DX002 (ip), vehicle: Klucel (hydroxypropylcellulose) (HPC) 101 % of control

CCCCNC(=O)c1ccccc1N
inactive: dose: 50.0 mg/kg/injection, schedule: Q04DX003 (ip), vehicle: other 103 % of control | dose: 100.0 mg/kg/injection, schedule: Q04DX003 (ip), vehicle: other 95 % of control and 101 % of control | dose: 200.0 mg/kg/injection, schedule: Q04DX003 (ip), vehicle: other 92 % of control | dose: 400.0 mg/kg/injection, schedule: Q04DX003 (ip), vehicle: other 90 % of control

ON=C(c1ccc(Cl)cc1)c1ccc(Cl)cc1
inactive: [2] 95 % of control | [3] 93 % of control | [4] 93 % of control

COC(=O)c1nc(Cl)nc(N)c1Cl
inactive: [6] 94 % of control | [8] 94 % of control | [9] 97 % of control

CN(C)CCCNc1nc(-c2cc(C(F)(F)F)cc(C(F)(F)F)c2)nc(C(Cl)(Cl)Cl)n1
inactive: [10] 100 % of control | [11] 92 % of control | [12] 106 % of control

C/C(=N\N(Cc1ccc(CN(/N=C(\C)c2ccccc2)c2ccccc2)cc1)c1ccccc1)c1ccccc1
inactive: dose: 100.0 mg/kg/injection, schedule: Q01DX001 (ip), vehicle: other 86 % of control | dose: 200.0 mg/kg/injection, schedule: Q01DX001 (ip), vehicle: other 89 % of control | dose: 400.0 mg/kg/injection, schedule: Q01DX001 (ip), vehicle: other 89 % of control

CCOC(=O)/C(C#N)=C(\CC)c1ccccc1
inactive: [5] 98 % of control | [7] 101 % of control

Source: PubChem BioAssay AID248 (DTP/NCI, 2004)
